We go through one molecule from patent publication US20210214385A1, “INHIBITORS OF D-AMINO ACID OXIDASE AND USES THEREOF” (SyneuRx International (Taiwan) Corp., priority 2018, published 2021).

Series [1] has as its target human D-amino acid oxidase (hDAAO) (Homo sapiens, UniProt P14920). Put plainly: In vitro measurement of human D-amino acid oxidase (hDAAO) activity, D-Serine substrate, Amplex Red fluorescence. It counts as biochemical.
A further series has as its system MK-801 treated mice. The series is described as follows: Pre-pulse inhibition in MK-801 treated mice. It counts as in vivo. To be noted: 30 mg/kg oral, MK-801 0.3 mg/kg i.p., male mice. How it is done: C57BL/6J male mice were group housed under the same condition as described in Example 1. Mice were randomly assigned into three groups, Group 1: vehicle control, Group 2: MK-801, Group 3: Cpd 24 (30 mg/kg)+MK-801. Mice in Group 2-3 received an acute intraperitoneal (i.p.) injection of MK-801 (Sigma-Aldrich USA), a NMDA receptor antagonist, dissolved in normal saline, at 0.3 mg/kg 20 minutes prior to the pre-pulse inhibition test. Each mouse in Group 1-2 and Group 3 received, respectively, an acute oral administration of 65% PEG400 in ddH2O and compound 24 at 30 mg/kg (dissolved with 65% PEG400 in ddH2O) 20 minutes prior to the MK-801 administration.
Pre-pulse inhibition, using SR-LAB startle apparatus (San Diego Instruments, San Diego, Calif., USA), was used to determine the efficacy of compound 24 on attenuating the MK-801 induced deficit of sensorimotor gating function in mice. Under 65 dB background noise, each session was composed of 5-minutes accumulation period followed by 64 trials in four blocks. The pulse alone (PA) trial was a 40 ms, 120 dB white noise burst. In the prepulse (pp)+pulse trials, a 20 ms white noise prepulse stimuli of 71 dB (pp6), 75 dB (pp10), and 83 dB (pp18) were presented 100 ms before a 40 ms 120 dB pulse. The non-stimulus (NS) trials presented the background noise only. The initial and the last blocks were composed of six PA trials, respectively. Two middle blocks consisted of PA, pp+pulse, and NS trials. These trials were presented pseudo-randomly and separated by intertribal intervals of 15 seconds on average (varying between 10 to 20 s). The percentage of prepulse inhibition was evaluated by the following formula: % PPI=100× [(PA score)−(pp-P score)]/(PA score), where the PA score was the average of the PA value in the middle blocks.

The nature of series [2]: Log P, n-octanol/water partition coefficient, HPLC. It counts as physicochemical. How it is done:
The sample compounds tested in the log P experiments included enriched tannic acid (prepared by the enrichment method 10 of U.S. Ser. No. 10/105,378), compounds 21, 24, 27, 46, and 56. First, n-Octanol and water was saturated with each other to achieve partition equilibrium and the two phases were separated for further use. Sample compounds were dissolved in water and n-octanol phase, respectively. Both phases were mixed by vertical rotation movement. After the water and n-octal phases reached equilibrium state, both phases were analyzed to determine the concentrations of the sample compounds for the determination of log P values. All samples were performed in a Shimadzu CBM-20A FfPLC system. The chromatographic separation was carried out on a 5 μm, Kinetex C18 100 Å LC column (100×4.6 mm). The mobile phase was 0.1% formic acid in water and acetonitrile/Methanol set as gradient. Flow rate used was 1.2 mL/min. Column was at room temperature 20±5° C.
The partition coefficient abbreviated P is calculated based on the concentration in n-octanol divided by the concentration in water. The formula of log P is shown below: […]

The nature of series [3]: Concentration in mouse brain after i.p. administration, HPLC-MS after tannase hydrolysis into gallic acid. It counts as in vivo, mice. The procedure:
The objective of this experiment was to compare the concentration of Compound 24 and enriched tannic acid in mouse brain after intraperitoneal (i.p.) administration. The enriched tannic acid was prepared by the enrichment method 10 of U.S. Ser. No. 10/105,378. C57BL/6J mice at 14 weeks of age were divided into two groups with 3 mice each. The mice in group I and II were, respectively, i.p. injected with Compound 24 at 30 mg/kg and enriched tannic acid at 15 mg/kg once every two days for three months. The brain sample was collected from each animal at 24 hours after the final i.p. administration and immediately frozen and stored at −70° C. until further use.
The amounts of Compound 24 and enriched tannic acid in mice brain were analyzed by high performance liquid chromatography-mass spectrometry (HPLC-MS) after enzymatic hydrolysis into gallic acid. Each frozen brain sample was homogenized with 4-fold volume of deionized water (ddH2O) using a handheld tissue homogenizer (BT Lab Systems). […]
Chromatographic analysis was performed using a Phenomenex Kinetex C8 column (150×4.6 mm, 5 μm). […] Quantitation was done using the selected-ion monitoring chromatogram (SIM) mode to monitor the precursor ion of m/z 169 for gallic acid and m/z 137 for 4-hydroxybenzoic acid as an internal standard. […]

Another series is described as follows: in vivo. To be noted: C57BL/6J, mouse, po.

human D-amino acid oxidase (hDAAO), sequence (P14920 whole entry): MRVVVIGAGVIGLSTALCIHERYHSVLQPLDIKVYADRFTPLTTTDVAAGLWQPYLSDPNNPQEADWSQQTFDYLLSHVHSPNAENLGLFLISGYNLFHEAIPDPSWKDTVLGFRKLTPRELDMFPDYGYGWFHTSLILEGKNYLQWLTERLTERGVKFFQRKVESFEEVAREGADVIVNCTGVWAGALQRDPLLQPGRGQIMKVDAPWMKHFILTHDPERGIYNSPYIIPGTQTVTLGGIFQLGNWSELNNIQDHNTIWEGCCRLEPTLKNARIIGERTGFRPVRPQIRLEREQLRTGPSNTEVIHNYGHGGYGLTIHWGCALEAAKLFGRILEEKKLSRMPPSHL

A word on the IC50: it is the concentration at which inhibition is half-maximal. The logP is the decadic logarithm of the partition coefficient of the neutral form, usually between octanol and water. A lower logP goes with a more hydrophilic compound. `O=C(OC[C@H]1O[C@H](OC(=O)c2cc(O)c(O)c(OC(=O)c3cc(O)c(O)c(OC(=O)c4cc(O)c(O)c(O)c4)c3)c2)[C@H](OC(=O)c2cc(O)c(O)c(OC(=O)c3cc(O)c(O)c(OC(=O)c4cc(O)c(O)c(O)c4)c3)c2)[C@@H](OC(=O)c2cc(O)c(O)c(OC(=O)c3cc(O)c(O)c(OC(=O)c4cc(O)c(O)c(O)c4)c3)c2)[C@@H]1OC(=O)c1cc(O)c(O)c(OC(=O)c2cc(O)c(O)c(OC(=O)c3cc(O)c(O)c(O)c3)c2)c1)c1cc(O)c(O)c(OC(=O)c2cc(O)c(O)c(OC(=O)c3cc(O)c(O)c(O)c3)c2)c1` [Compound 24, (2R,3R,4S,5R,6R)-6-(((3-((3,4-dihydroxy-5-((3,4,5-trihydroxybenzoyl)oxy)benzoyl)oxy)-4,5-dihydroxybenzoyl)oxy)methyl)tetrahydro-2H-pyran-2,3,4,5-tetrayl tetrakis(3-((3,4-dihydroxy-5-((3,4,5-trihydroxybenzoyl)oxy)benzoyl)oxy)-4,5-dihydroxybenzoate)]: the 50% inhibitory concentration (IC50) in series [1] is 13 nM. Also, the pre-pulse inhibition percentage entry with MK-801 treated mice (71 dB pre-pulse intensity) and in the series with MK-801 treated mice (83 dB pre-pulse intensity) was “moderately increased the inhibition percentage” in each case. In addition, the “MK-801 induced pre-pulse inhibition deficit” value with MK-801 treated mice (75 dB pre-pulse intensity) is listed as “significantly improved”. The molecule further yielded a logP in series [2] of 0.58. Also, in series [3] (30 mg/kg i.p. once every two days for three months, 24 hours after final dose), the “Concentration (amount per g brain tissue)” value is given as 2714.19 ng/g. Besides, in series [3] (compound 24 at 30 mg/kg vs enriched tannic acid at 15 mg/kg i.p.), the “brain concentration relative to enriched tannic acid” value is “more than 9 times”. The molecule further registered an MTD at 7 day in the series “in vivo” of 4500 mg/kg.
